Paper PMC5065625, “Structure-mechanism-based engineering of chemical regulators targeting distinct pathological factors in Alzheimer's disease” (Nature Communications, 2016)
Structures can show the parent of a compound that is named as a salt.

Key:
[1] = target: metal-free Aβ40/Aβ42 (Homo sapiens, UniProt P05067); set-up: method as in PMID 26575890; conditions: cited from earlier work
[2] = Solubility; format: physicochemical; conditions: water; HCl salt

Sequence of metal-free Aβ40/Aβ42 (P05067 672-711 limits assumed): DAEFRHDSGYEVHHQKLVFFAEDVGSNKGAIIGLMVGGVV

Compound | Interaction with Aβ and redirection of self-assembly [1] | solubility [2]
CN(C)c1ccc(N)cc1 [DMPD, N,N-dimethyl-p-phenylenediamine] | interact with both metal-free Aβ and metal–Aβ and redirect their self-assembly routes to form off-pathway aggregates | –
Nc1ccc(NCc2ccccn2)cc1 [HCl salt of 1, N^1-(pyridin-2-ylmethyl)benzene-1,4-diamine] | – | ~800 mg/mL
